According to patent US9597407B2, “Targeted antimicrobial moieties” (C3 Jian, Inc., priority 2009, dated 2017):
Ends that are not written are not given here.

Test system: microorganisms
Experiment: Morphology, biofilm and growth disruption by peptides (Table 5)
Type: cell-based
Design: key: A: Peptide aggregates; B: Less hyphal formation; Clumps; Diffuse clumps and small polyps; F: Diffuse growth; H: Thin; I: Growth inhibition; Microcolony formation; Rippled; Small polyps; Thick; W: Halo formation on top, microlonies on bottom
Excerpt: In certain embodiments peptides that induce alterations in phenotype or other biological activities can also be used as antimicrobial effector moieties.

With DLLKSLLGQDGAKNDEIIEFIKIIMEK [PF-591] the “Organism, effect (morphology, biofilm and growth disruption)” value (C. jejuni) was “C. jejuni (C)”, the “Organism, effect (morphology, biofilm and growth disruption)” value (E. faecalis) was “E. faecalis (A)” and the “Organism, effect (morphology, biofilm and growth disruption)” value (S. pneumoniae) was “S. pneumoniae (R)”.
With “EILNNNQVIKELTMKYKTQFESNLGGWTARARR [PF-580]” the “Organism, effect (morphology, biofilm and growth disruption)” value (M. luteus) was “M. luteus (C)”, the “Organism, effect (morphology, biofilm and growth disruption)” value (MRSA) was “MRSA (M)” and the “Organism, effect (morphology, biofilm and growth disruption)” value (S. epidermidis) was “S. epidermidis (M)”. For the same substance, the “Organism, effect (morphology, biofilm and growth disruption)” value (S. pneumoniae) was “S. pneumoniae (C)”.
“FESKILNASKELDKEKKVNTALSFNSHQDFAKAYQNGKI [PF-606]” was tested, and the “Organism, effect (morphology, biofilm and growth disruption)” value (C. albicans) was “C. albicans (B)”, the “Organism, effect (morphology, biofilm and growth disruption)” value (MRSA) was “MRSA (I)” and the “Organism, effect (morphology, biofilm and growth disruption)” value (S. epidermidis) was “S. epidermidis (I)”. The “Organism, effect (morphology, biofilm and growth disruption)” value (S. mutans) was “S. mutans (I)” and the “Organism, effect (morphology, biofilm and growth disruption)” value (S. pneumoniae) was “S. pneumoniae (H)”.
For FQKPFTGEEVEDFQDDDEIPTII [PF-437], the “Organism, effect (morphology, biofilm and growth disruption)” value (S. pneumoniae) was “S. pneumoniae (I)”.
In the case of GIVLIGLKLIPLLANVLR [PF-322], the “Organism, effect” value (B. subtilis) is reported as “B. subtilis (H)” and the “Organism, effect” value (S. epidermidis) is reported as “S. epidermidis (C)”.
With “GSVIKKRRKRMAKKKHRKLLKKTRIQRRRAGK [PF-527]” the “Organism, effect (morphology, biofilm and growth disruption)” value (B. subtilis) was “B. subtilis (I)”, the “Organism, effect (morphology, biofilm and growth disruption)” value (C. albicans) was “C. albicans (B)” and the “Organism, effect (morphology, biofilm and growth disruption)” value (C. jeikeium) was “C. jeikeium (I)”. The “Organism, effect (morphology, biofilm and growth disruption)” value (C. jejuni) was “C. jejuni (M)”, the “Organism, effect (morphology, biofilm and growth disruption)” value (M. luteus) was “M. luteus (S)” and the “Organism, effect (morphology, biofilm and growth disruption)” value (MRSA) was “MRSA (I)”. For the same substance, the “Organism, effect (morphology, biofilm and growth disruption)” value (P. aeruginosa) was “P. aeruginosa (I)”, the “Organism, effect (morphology, biofilm and growth disruption)” value (S. epidermidis) was “S. epidermidis (M)” and the “Organism, effect (morphology, biofilm and growth disruption)” value (S. pneumoniae) was “S. pneumoniae (H)”.
In the case of KFQGEFTNIGQSYIVSASHMSTSLNTGK [PF-583], the “Organism, effect (morphology, biofilm and growth disruption)” value (MRSA) is reported as “MRSA (I)”, the “Organism, effect (morphology, biofilm and growth disruption)” value (S. epidermidis) is reported as “S. epidermidis (I)” and the “Organism, effect (morphology, biofilm and growth disruption)” value (S. mutans) is reported as “S. mutans (F)”. For the same substance, the “Organism, effect (morphology, biofilm and growth disruption)” value (S. pneumoniae) was “S. pneumoniae (D)”.
For KFSDQIDKGQDALKDKLGDL [PF-525], the “Organism, effect (morphology, biofilm and growth disruption)” value (S. pneumoniae) was “S. pneumoniae (H)”.
With KNKKQTDILEKVKEILDKKKKTKSVGQKLY [PF-538] the “Organism, effect (morphology, biofilm and growth disruption)” value (S. pneumoniae) was “S. pneumoniae (H)”.
With KTPNDKIHKTIIIKHIIL [PF-533] the “Organism, effect (morphology, biofilm and growth disruption)” value (E. coli) was “E. coli (R)”, the “Organism, effect (morphology, biofilm and growth disruption)” value (E. faecalis) was “E. faecalis (C)” and the “Organism, effect (morphology, biofilm and growth disruption)” value (MRSA) was “MRSA (H)”. For the same substance, the “Organism, effect (morphology, biofilm and growth disruption)” value (S. epidermidis) was “S. epidermidis (H)” and the “Organism, effect (morphology, biofilm and growth disruption)” value (S. pneumoniae) was “S. pneumoniae (C)”.
In the case of “LGLTAGVAYAAQPTNQPTNQPTNQPTNQPTNQPTNQPRW-NH2 [PF-520]”, the “Organism, effect (morphology, biofilm and growth disruption)” value (S. pneumoniae) is reported as “S. pneumoniae (M)”.
With MGIIAGIIKVIKSLIEQFTGK [PF-007] the “Organism, effect” value (E. coli) was “E. coli (A)”, the “Organism, effect” value (E. faecalis) was “E. faecalis (A)” and the “Organism, effect” value (M. luteus) was “M. luteus (A)”. The “Organism, effect” value (MRSA) was “MRSA (R)” and the “Organism, effect” value (S. epidermidis) was “S. epidermidis (A)”.
With MIHLTKQNTMEALHFIKQFYDMFFILNFNV [PF-040] the “Organism, effect” value (B. subtilis) was “B. subtilis (D)”, the “Organism, effect” value (C. jeikeium) was “C. jeikeium (D)” and the “Organism, effect” value (C. jejuni) was “C. jejuni (D)”. For the same substance, the “Organism, effect” value (E. coli) was “E. coli (C)”, the “Organism, effect” value (M. luteus) was “M. luteus (D)” and the “Organism, effect” value (MRSA) was “MRSA (D)”. The “Organism, effect” value (P. mirabilis) was “P. mirabilis (C)”, the “Organism, effect” value (S. epidermidis) was “S. epidermidis (D)” and the “Organism, effect” value (S. mutans) was “S. mutans (F)”. For the same substance, the “Organism, effect” value (S. pneumoniae) was “S. pneumoniae (D)”.
With MRFGSLALVAYDSAIKHSWPRPSSVRRLRM [PF-672] the “Organism, effect (morphology, biofilm and growth disruption)” value (B. subtilis) was “B. subtilis (I)”, the “Organism, effect (morphology, biofilm and growth disruption)” value (C. albicans) was “C. albicans (I)” and the “Organism, effect (morphology, biofilm and growth disruption)” value (C. jeikeium) was “C. jeikeium (R)”. The “Organism, effect (morphology, biofilm and growth disruption)” value (E. faecalis) was “E. faecalis (I)”, the “Organism, effect (morphology, biofilm and growth disruption)” value (MRSA) was “MRSA (I)” and the “Organism, effect (morphology, biofilm and growth disruption)” value (S. epidermidis) was “S. epidermidis (I)”. For the same substance, the “Organism, effect (morphology, biofilm and growth disruption)” value (S. pneumoniae) was “S. pneumoniae (I)”.
